In ChEMBL document CHEMBL4130506, “Design, synthesis and biological evaluation of N-(4-alkoxy-3-cyanophenyl)isonicotinamide/nicotinamide derivatives as novel xanthine oxidase inhibitors” (Eur J Med Chem, 2017):

These compounds were tested against T1, Xanthine dehydrogenase/oxidase (Bos taurus, UniProt P80457) (assay: Mixed inhibition of bovine xanthine oxidase assessed as reduction in uric acid formation up to 0.6 uM using xanthine as substrate preincubated for 10 mins followed by substrate addition by Lineweaver-Burk plot analysis). Details: cattle; call rule not given here.
T1 sequence (P80457 whole entry): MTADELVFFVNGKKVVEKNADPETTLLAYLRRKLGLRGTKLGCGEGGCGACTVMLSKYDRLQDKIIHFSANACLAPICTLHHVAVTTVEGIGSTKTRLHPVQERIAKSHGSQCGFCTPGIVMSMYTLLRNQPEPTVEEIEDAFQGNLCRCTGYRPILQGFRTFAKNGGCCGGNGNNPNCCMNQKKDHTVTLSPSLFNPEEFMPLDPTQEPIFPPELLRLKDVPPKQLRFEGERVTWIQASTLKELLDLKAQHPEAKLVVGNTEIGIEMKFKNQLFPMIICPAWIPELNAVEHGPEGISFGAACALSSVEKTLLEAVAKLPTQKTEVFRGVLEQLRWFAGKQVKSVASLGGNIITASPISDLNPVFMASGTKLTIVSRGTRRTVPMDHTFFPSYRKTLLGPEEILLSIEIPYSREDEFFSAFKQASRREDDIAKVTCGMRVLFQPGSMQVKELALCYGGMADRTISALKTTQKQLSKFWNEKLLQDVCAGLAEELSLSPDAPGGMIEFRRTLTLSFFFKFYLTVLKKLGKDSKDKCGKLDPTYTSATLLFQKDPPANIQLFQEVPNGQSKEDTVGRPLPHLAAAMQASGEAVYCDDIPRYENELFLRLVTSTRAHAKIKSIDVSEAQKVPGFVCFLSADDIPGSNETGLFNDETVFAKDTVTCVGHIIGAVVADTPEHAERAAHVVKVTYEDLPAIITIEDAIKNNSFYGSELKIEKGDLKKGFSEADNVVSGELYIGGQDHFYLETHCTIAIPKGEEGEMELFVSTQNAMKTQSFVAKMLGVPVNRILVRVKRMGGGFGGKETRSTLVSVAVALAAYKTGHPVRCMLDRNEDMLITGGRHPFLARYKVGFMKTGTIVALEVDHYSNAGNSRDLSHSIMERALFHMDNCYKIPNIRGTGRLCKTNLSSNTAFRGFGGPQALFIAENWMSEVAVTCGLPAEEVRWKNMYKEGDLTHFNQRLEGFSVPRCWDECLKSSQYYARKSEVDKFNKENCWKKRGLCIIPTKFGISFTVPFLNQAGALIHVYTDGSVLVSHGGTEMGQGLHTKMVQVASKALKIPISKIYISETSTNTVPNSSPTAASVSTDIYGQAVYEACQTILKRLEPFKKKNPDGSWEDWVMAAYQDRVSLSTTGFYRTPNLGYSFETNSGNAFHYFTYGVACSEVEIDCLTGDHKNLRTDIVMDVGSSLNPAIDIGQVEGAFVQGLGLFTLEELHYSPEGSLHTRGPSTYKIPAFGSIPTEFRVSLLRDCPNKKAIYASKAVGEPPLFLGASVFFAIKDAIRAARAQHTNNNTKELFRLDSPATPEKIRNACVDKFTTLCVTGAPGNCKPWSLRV

inhibition (INH) | SMILES
Active | N#Cc1ccccc1COc1ccc(NC(=O)c2ccncc2)cc1C#N

The compounds below were run against T1, Xanthine dehydrogenase/oxidase (assay: Inhibition of bovine xanthine oxidase assessed as reduction in uric acid formation at 50 uM using xanthine as substrate preincubated for 10 mins followed by substrate addition by UV spectrophotometric method). Details: cattle.

inhibition at 50 µM [%] | SMILES
< 60 | CC(C)Oc1ccc(NC(=O)c2cccnc2)cc1C#N
< 60 | CCC(C)Oc1ccc(NC(=O)c2cccnc2)cc1C#N (centres undefined)
< 60 | COCCOc1ccc(NC(=O)c2ccncc2)cc1C#N

More lines, now with the values behind:

SMILES | inhibition at 50 µM [%]
CCCOc1ccc(NC(=O)c2cccnc2)cc1C#N | < 60
N#Cc1cc(NC(=O)c2ccccc2)ccc1OCc1ccccc1 | < 60
CCCCOc1ccc(NC(=O)c2ccccn2)cc1C#N | < 60
CCCCCOc1ccc(NC(=O)c2cccnc2)cc1C#N | < 60
CCCCCCCOc1ccc(NC(=O)c2cccnc2)cc1C#N | < 60
N#Cc1cc(NC(=O)c2cccnc2)ccc1OCc1ccc(Cl)cc1 | < 60
N#Cc1cc(NC(=O)c2cccnc2)ccc1OC1CCCC1 | < 60
N#Cc1cc(NC(=O)c2ccccn2)ccc1OCc1ccc(Cl)cc1 | < 60
CCCCOc1ccc(NC(=O)c2cccnc2)cc1C#N | < 60
CCCCCCCCOc1ccc(NC(=O)c2cccnc2)cc1C#N | < 60
CC(C)COc1ccc(NC(=O)c2ccccn2)cc1C#N | < 60
CCCCCCOc1ccc(NC(=O)c2cccnc2)cc1C#N | < 60
N#Cc1ccc(COc2ccc(NC(=O)c3cccnc3)cc2C#N)cc1 | < 60
COCCOc1ccc(NC(=O)c2cccnc2)cc1C#N | < 60
CC(C)COc1ccc(NC(=O)c2cccnc2)cc1C#N | < 60
CC(C)CCOc1ccc(NC(=O)c2ccccn2)cc1C#N | < 60

These compounds were tested against T1, Xanthine dehydrogenase/oxidase (assay: Inhibition of bovine xanthine oxidase assessed as reduction in uric acid formation using xanthine as substrate preincubated for 10 mins followed by substrate addition by UV spectrophotometric method). Details: not given.

IC50 [nM] | SMILES
5000 | CCCCCCCOc1ccc(NC(=O)c2ccncc2)cc1C#N
5700 | N#Cc1cc(NC(=O)c2ccncc2)ccc1OC1CCCC1
6100 | CCC(C)Oc1ccc(NC(=O)c2ccncc2)cc1C#N (centres undefined)
2700 | CCCCCCOc1ccc(NC(=O)c2ccncc2)cc1C#N
2000 | CC(C)CCOc1ccc(NC(=O)c2ccncc2)cc1C#N
2300 | CCCCOc1ccc(NC(=O)c2ccncc2)cc1C#N
3000 | CCCCCOc1ccc(NC(=O)c2ccncc2)cc1C#N
9500 | CC(C)Oc1ccc(NC(=O)c2ccncc2)cc1C#N
3900 | CCCOc1ccc(NC(=O)c2ccncc2)cc1C#N
1600 | CC(C)COc1ccc(NC(=O)c2ccncc2)cc1C#N

More lines, now with the values behind:

SMILES | IC50 [nM]
N#Cc1ccc(COc2ccc(NC(=O)c3ccncc3)cc2C#N)cc1 | 2300
CC(C)CCOc1ccc(NC(=O)c2cccnc2)cc1C#N | 35000
N#Cc1ccccc1COc1ccc(NC(=O)c2ccncc2)cc1C#N | 300
COc1ccccc1COc1ccc(NC(=O)c2ccncc2)cc1C#N | 1800
N#Cc1cc(NC(=O)c2ccncc2)ccc1OCc1ccccc1 | 900
N#Cc1cc(NC(=O)c2cccnc2)ccc1OCc1ccccc1 | 32800
N#Cc1cccc(COc2ccc(NC(=O)c3ccncc3)cc2C#N)c1 | 2000
N#Cc1cc(NC(=O)c2ccccn2)ccc1OCc1ccccc1 | 22600
CCCCCCCCOc1ccc(NC(=O)c2ccncc2)cc1C#N | 19200
COc1ccc(COc2ccc(NC(=O)c3ccncc3)cc2C#N)cc1 | 600
N#Cc1cc(NC(=O)c2ccncc2)ccc1OCc1ccc(Cl)cc1 | 800
N#Cc1cc(-c2n[nH]c(-c3ccncc3)n2)ccn1 [TOPIROXOSTAT] | 15

These compounds were tested against T1, Xanthine dehydrogenase/oxidase (assay: Potency index, ratio of allopurinol IC50 to test compound IC50 for bovine xanthine oxidase). Details: cattle.

SMILES | Ratio IC50
N#Cc1ccccc1COc1ccc(NC(=O)c2ccncc2)cc1C#N | 28.3
CC(C)COc1ccc(NC(=O)c2ccncc2)cc1C#N | 5.3
